In ChEMBL document CHEMBL5505995, “Discovery of novel urea derivatives as ferroptosis and autophagy inducer for human colon cancer treatment” (Eur J Med Chem, 2024):
Active and inactive are the calls of the source.

How the values were obtained:
MCF7 = test: Antiproliferative activity against human MCF7 cells assessed as inhibition of cell growth incubated for 48 hrs by MTT assay; format: functional, cell-based; details: MCF7, 48 h
HT-29 [1] = test: Induction of cell cycle arrest in human HT-29 cells assessed as accumulation of cells at G2/M phase at 1 uM incubated for 48 hrs by propidium iodide staining based flow cytometric analysis; format: functional
HT-29 [2] = test: Induction of cell cycle arrest in human HT-29 cells assessed as accumulation of cells at G2/M phase at 4 uM incubated for 48 hrs by propidium iodide staining based flow cytometric analysis relative to control; format: functional
HT-29 [3] = test: Induction of cell cycle arrest in human HT-29 cells assessed as […] of CDK1 expression at 0.5 to 4 uM incubated for 48 hrs by Western blotting analysis; format: functional, cell-based; details: dose 0.5-4 µM
HT-29 [4] = test: Induction of cell death in human HT-29 cells incubated for 48 hrs in presence of ferroptosis inhibitor CPX by MTT assay; format: functional, cell-based
HT-29 [5] = test: Induction of ferroptosis in human HT-29 cells assessed as increase in intracellular lipid peroxidation accumulation incubated for 48 hrs by C11 BODIPY 581/591 staining based flow cytometry; format: functional, cell-based
HT-29 [6] = test: Induction of ferroptosis in human HT-29 cells assessed as decrease in GPX4 expression incubated for 48 hrs by Western blotting analysis; format: functional, cell-based
HT-29 [7] = test: Induction of ferroptosis in human HT-29 cells assessed as decrease in intracellular GSH level at 1 to 4 uM incubated for 48 hrs; format: functional, cell-based; details: dose 1-4 µM
HT-29 [8] = test: Induction of ferroptosis in human HT-29 cells assessed as increase in intracellular iron level incubated for 48 hrs in presence of ferroptosis inhibitor CPX; format: functional, cell-based
HT-29 [9] = test: Induction of ferroptosis in human HT-29 cells assessed as decrease in GPx level incubated for 48 hrs in presence of ferroptosis inhibitor deferoxamine; format: functional, cell-based
HT-29 [10] = test: Induction of ferroptosis in human HT-29 cells assessed as fusion of mitochondrial cristae incubated for 48 hrs by transmission electron microscopic analysis; format: functional, cell-based
HT-29 [11] = test: Induction of ferroptosis in human HT-29 cells assessed as fusion of mitochondrial cristae incubated for 48 hrs in presence of ferroptosis inhibitor deferoxamine by transmission electron microscopic analysis; format: functional, cell-based
HT-29 [12] = test: Induction of autophagy in human HT-29 cells assessed as increase in MDC positive cells incubated for 48 hrs by MDC staining based flow cytometric analysis; format: functional, cell-based
HT-29 [13] = test: Antiproliferative activity against human HT-29 cells assessed as inhibition of cell growth incubated for 48 hrs in presence of autophagy inhibitor 3-methyladenine by MTT assay; format: functional, cell-based
HT-29 [14] = test: Antiproliferative activity against human HT-29 cells assessed as inhibition of cell growth incubated for 48 hrs in presence of autophagy inhibitor Spautin-1 by MTT assay; format: functional, cell-based
HT-29 [15] = test: Induction of ROS production in human HT-29 cells assessed as increase in red fluorescence intensity incubated for 48 hrs by DHE fluorescent probe based flow cytometry; format: functional, cell-based
HT-29 [16] = test: Induction of ROS production in human HT-29 cells assessed as increase in DCF fluorescence intensity incubated for 48 hrs by DCFH-DA fluorescent probe based flow cytometry; format: functional, cell-based
Cell membrane = test: Induction of mitochondrial membrane potential loss in human HT-29 cells assessed as increase in green fluorescence incubated for 48 hrs by JC-1 staining based flow cytometry; format: cell membranes

COc1ccc2c(c1)NCCN2C(=O)NCCCl
inactive: Activity (HT-29 [1]) | Activity (HT-29 [4]) | Activity (HT-29 [8]) | Activity (HT-29 [9]) | Activity (HT-29 [11]) | Activity (HT-29 [13]) | Activity (HT-29 [14])
>80%: Activity (HT-29 [2])
7.01 µM: IC50 (MCF7)
active: Activity (HT-29 [3]) | Activity (HT-29 [5]) Dose-Dependent Effect | Activity (HT-29 [6]) Dose-Dependent Effect | Activity (HT-29 [7]) | Activity (HT-29 [10]) | Activity (HT-29 [12]) Dose-Dependent Effect | Activity (HT-29 [15]) | Activity (HT-29 [16]) Dose-Dependent Effect | Activity (Cell membrane) Dose-Dependent Effect
